The values that follow come from US6492337B1, “Galactosylceramide, glucosylceramide, lactosylceramide, and specific catchers therefor for use in the prophylaxis or therapy of prediabetes, diabetes and/or associated complication” (A+ Science AB, priority 1997, dated 2002).

Test [1] deals with NOD mouse model of type 1 diabetes. Nature of the test: Intrathymic injection in NOD mice, later diabetes incidence. The format is in vivo. Here is the method:
The NOD mouse model is an animal model of type 1 diabetes. The mice develop spontaneously diabetes within 200 days of life with an incidence of 50% or more. In the present study the animals were examined daily and once a week checked for glucosuria. They were diagnosed as diabetic if their blood glucose values was higher than 200 mg glucose per 100 ml. When diagnosed as diabetics the animals were sacrificed. Otherwise the remaining non-diabetic animals were sacrificed at the end 5 of the study after 200 days of age.
Four groups of animals each containing between 30 and 40 animals were investigated: The animals were injected intrathymically when 3 weeks old. There was injected […] galactosylceramide in 100 μl vehicle (PBS). The control mice were treated with the 100 μl PBS alone. In another experiment liposome preparation of galactosylceramide was made using phosphatidylcholin and galactosylceramide. The control group was treated with phosphatidylcholin and PBS alone.

Test [2] has as its system human mononuclear cells (monocytes and T-cells). The conditions noted are these: compared to incubation with LPS and PHA without galactosylceramide; cited from earlier work.

On to galactosylceramide, for which the “mice that developed diabetes, two studies together” value in test [1] (both studies pooled, 31 of 70 mice, PBS mice 57.4%) is listed as 44.3%. Moreover, in test [1] (first study, pure form), the “time of diabetes development versus control mice” value is “occurred later than among the control mice”. In test [1] (first study, pure form in PBS, intrathymic injection at 3 weeks old, followed to 200 days of age, 17 of 37 mice, PBS control 56.8%), the “mice that developed diabetes” value was found to be 45.9%. Besides, in test [2], the IL-6 production result is recorded as “increased” and the TNF production entry is “increased”.
